Consider 82 molecules from PubChem BioAssay AID1117348 (Cheminformatics & Chemogenomics Research Group (CCRG), …, 2015).

As a reminder, the IC50 is the point on the concentration scale where inhibition reaches its midpoint.

Calls of active or inactive are those of the source. How the calls were made is not given here. A value given as a limit tells only on which side of the number the result lay.

The test system of the assay is HeLa cell cycle, increased S-phase population. In words: HeLa S-phase population increase, dose response, cell-based, IC50 (AID 1117348).
With `CC(=O)Oc1ccccc1C(=O)Nc1ncc([N+](=O)[O-])s1`, the IC50 was > 10 µM (inactive).
Take `O=C1C(I)=CC(=C(c2cc(I)c(O)c(I)c2)c2ccccc2C(=O)O)C=C1I`: the IC50 is > 10 µM (inactive).
For the molecule `Nc1nc(Cl)nc2c1ncn2[C@@H]1O[C@H](CO)[C@@H](O)[C@@H]1F`, the IC50 was > 10 µM (inactive).
Turning to `CCCCCCCCCCOCC(O)CN` (configuration not stated), the IC50 is > 10 µM (inactive).
With `[O-][n+]1ccccc1SSc1cccc[n+]1[O-]` the figure was > 10 µM (inactive); with `OC[C@H]1O[C@@H](n2cnc3c(=S)nc[nH]c32)[C@H](O)[C@@H]1O`, > 10 µM (inactive).
As to `CCCCCCCCCCCC[N+](C)(C)Cc1ccccc1`, the IC50 was > 10 µM (inactive).
Turning to `O=[N+]([O-])c1ccc(Oc2ccc(N=C=S)cc2)cc1`, the IC50 was > 10 µM (inactive).
In the case of `Cc1cc2c(C(C)C)c(O)c(O)c(C=O)c2c(O)c1-c1c(C)cc2c(C(C)C)c(O)c(O)c(C=O)c2c1O`, the IC50 is > 10 µM (inactive).
`Clc1ccc(Nc2nnc(Cc3ccncc3)c3ccccc23)cc1`: the IC50 is > 10 µM (inactive).
With `CCC(COC(=O)c1cc(OC)c(OC)c(OC)c1)(c1ccccc1)N(C)C` (configuration not stated), the IC50 was > 10 µM (inactive).
For `Nc1ccc2cc3ccc(N)cc3nc2c1`, the IC50 was 3.44 µM.
As for `CCCCc1ccc2nc(NC(=O)OC)[nH]c2c1`, the IC50 is > 10 µM (inactive).
The result for `CC(C)=CCC/C(C)=C/CC/C(C)=C/C(=O)OCC(=O)[C@@]1(O)CC[C@H]2[C@@H]3CCC4=CC(=O)C=C[C@]4(C)[C@H]3[C@@H](O)C[C@@]21C` reads > 10 µM (inactive).
For the molecule `CC(C)=CCOc1ccc(/C=C/C(=O)c2ccc(OCC=C(C)C)cc2OCC(=O)O)cc1`, the IC50 is > 10 µM (inactive).
In the case of `Cc1ccc(S(=O)(=O)NC(=O)NN2CC3CCCC3C2)cc1` (configuration not stated), the IC50 was > 10 µM (inactive).
Regarding `CN(C)/N=N/c1nc[nH]c1C(N)=O`, the IC50 is > 10 µM (inactive).
The result for `CCC(C)(C)C(=O)O[C@H]1C[C@@H](C)C=C2C=C[C@H](C)[C@H](CC[C@@H]3C[C@@H](O)CC(=O)O3)[C@H]21` reads > 10 µM (inactive); that for `N[C@@H](Cc1ccc(N(CCCl)CCCl)cc1)C(=O)O`, > 10 µM (inactive); that for `O=c1[nH]c(=O)n([C@H]2C[C@H](O)[C@@H](CO)O2)cc1Br`, > 10 µM (inactive).
With `CCCCC(CC)CN=C(N)NC(N)=NCCCCCCN=C(N)NC(N)=NCC(CC)CCCC` (configuration not stated), the IC50 is > 10 µM (inactive).
In the case of `O=C1C2CC=CCC2C(=O)N1SC(Cl)(Cl)Cl` (configuration not stated), the IC50 was > 10 µM (inactive).
On to `COc1ccc2cc1Oc1ccc(cc1)C[C@H]1c3c(cc4c(c3Oc3cc5c(cc3OC)CCN(C)[C@@H]5C2)OCO4)CCN1C`, for which the IC50 was > 10 µM (inactive).
In the case of `O=C(Nc1ccc([N+](=O)[O-])cc1Cl)c1cc(Cl)ccc1O`, the IC50 was > 10 µM (inactive).
As to `CCCCCCCCCCCCCCCC[N+](C)(C)Cc1ccccc1`, the IC50 was > 10 µM (inactive).
With `CCN(CC)CCNC(=O)c1c(C)[nH]c(/C=C2\C(=O)Nc3ccc(F)cc32)c1C` the figure was > 10 µM (inactive); with `O=C1c2c(O)cccc2Cc2cccc(O)c21`, > 10 µM (inactive).
Turning to `O=C(NOCC1CC1)c1ccc(F)c(F)c1Nc1ccc(I)cc1Cl`, the IC50 is > 10 µM (inactive).
With `O=C(c1cc(O)c(O)c(O)c1)c1ccc(O)c(O)c1O`, the IC50 was > 10 µM (inactive).
Turning to `Cc1cc(O)c2ccccc2c1O`, the IC50 is > 10 µM (inactive).
For `COc1cc([C@@H]2c3cc4c(cc3[C@H](O)[C@H]3COC(=O)[C@H]23)OCO4)cc(OC)c1OC`, the IC50 is > 10 µM (inactive).
`Cc1cc(N)c2ccccc2[n+]1CCCCCCCCCC[n+]1c(C)cc(N)c2ccccc21`: the IC50 was > 10 µM (inactive).
With `CC[C@@]1(O)C(=O)OCc2c1cc1n(c2=O)Cc2cc3c(CN(C)C)c(O)ccc3nc2-1` the figure was 0.082 µM; with `O=c1[nH]c(=O)n([C@H]2C[C@H](O)[C@@H](CO)O2)cc1F`, 0.169 µM.
As for `COC(=O)Nc1nc2ccc(Sc3ccccc3)cc2[nH]1`, the IC50 was > 10 µM (inactive).
Take `COc1cccc2c1C(=O)c1c(O)c3c(c(O)c1C2=O)C[C@@](O)(C(=O)CO)C[C@@H]3O[C@H]1C[C@H](N)[C@H](O[C@@H]2CCCCO2)[C@H](C)O1`: the IC50 was 1.75 µM.
The result for `CCN(CC)CCCC(C)Nc1c2ccc(Cl)cc2nc2ccc(OC)cc12` (configuration not stated) reads 2.26 µM; that for `CCCNCC(O)COc1ccccc1C(=O)CCc1ccccc1` (configuration not stated), > 10 µM (inactive); that for `Nc1nc(F)nc2c1ncn2[C@@H]1O[C@H](CO)[C@@H](O)[C@@H]1O`, > 10 µM (inactive).
With `CCCSc1ccc2nc(NC(=O)OC)[nH]c2c1`, the IC50 was > 10 µM (inactive).
On to `COc1ccc(-c2nc3ccc(C4=NNC(=O)CC4C)cc3[nH]2)cc1` (configuration not stated), for which the IC50 was > 10 µM (inactive).
The result for `CC(C)=CCNc1ncnc2c1ncn2[C@@H]1O[C@H](CO)[C@@H](O)[C@H]1O` reads > 10 µM (inactive); that for `Cc1nc(N)nc(N)c1-c1ccc(Cl)c(Cl)c1`, > 10 µM (inactive); that for `C1CN(P2(N3CC3)=NP(N3CC3)(N3CC3)=NP(N3CC3)(N3CC3)=N2)CCO1` (configuration not stated), > 10 µM (inactive).
On to `CCN(CC)CCOc1ccc(C(O)(Cc2ccc(Cl)cc2)c2ccc(C)cc2)cc1` (configuration not stated), for which the IC50 is > 10 µM (inactive).
For `COc1c(C)c2c(c(O)c1C/C=C(\C)CCC(=O)OCCN1CCOCC1)C(=O)OC2`, the IC50 was 0.0147 µM.
As for `CCCCC1C(=O)N(c2ccccc2)N(c2ccc(O)cc2)C1=O` (configuration not stated), the IC50 is > 10 µM (inactive).
Turning to `CC(C)c1c(C(=O)Nc2ccccc2)c(-c2ccccc2)c(-c2ccc(F)cc2)n1CC[C@@H](O)C[C@@H](O)CC(=O)O`, the IC50 is > 10 µM (inactive).
Take `O=C(CCBr)N1CCN(C(=O)CCBr)CC1`: the IC50 is > 10 µM (inactive).
Regarding `COc1cc2c(c(OC)c1OC)-c1ccc(OC)c(=O)cc1[C@@H](NC(C)=O)CC2`, the IC50 is 0.1 µM (inactive).
With `CC[C@]1(O)C[C@@H]2CN(CCc3c([nH]c4ccccc34)[C@@](C(=O)OC)(c3cc4c(cc3OC)N(C)[C@H]3[C@@](O)(C(=O)OC)[C@H](OC(C)=O)[C@]5(CC)C=CCN6CC[C@]43[C@@H]65)C2)C1` the figure was > 10 µM (inactive); with `CO[C@@H]1[C@@H](OC)[C@H](C)[C@@](O)(CC(=O)O)O[C@H]1[C@H](C)[C@H]1O[C@@]2(CC[C@@](C)([C@H]3CC[C@@](C)([C@@H]4O[C@@H]([C@H]5O[C@](C)(O)[C@H](C)C[C@@H]5C)C[C@@H]4OC4C[C@H](OC)[C@@H](OC)[C@H](C)O4)O3)O2)C[C@H](O)[C@H]1C` (some centres not stated), > 10 µM (inactive).
Take `O=[N+]([O-])c1ccc(O)c2ncccc12`: the IC50 is > 10 µM (inactive).
Regarding `O=C1c2c(O)ccc(O)c2C(=O)c2c(NCCNCCO)ccc(NCCNCCO)c21`, the IC50 is > 10 µM (inactive).
Consider `Fc1ccc(C(OCCN2CCN(CCCc3ccccc3)CC2)c2ccc(F)cc2)cc1`, for which the IC50 is > 10 µM (inactive).
Regarding `C=CC(=O)Nc1cc2c(Nc3ccc(F)c(Cl)c3)ncnc2cc1OCCCN1CCOCC1`, the IC50 is > 10 µM (inactive).
As for `Nc1nc(=S)c2[nH]cnc2[nH]1`, the IC50 was > 10 µM (inactive).
With `C[C@@]12C(=O)OC(=O)[C@]1(C)C1CCC2O1` the figure was > 10 µM (inactive).
With `O=Cc1ccc(O)c(O)c1O`, the IC50 is > 10 µM (inactive).
The result for `C=C(C)[C@H]1Cc2c(ccc3c2O[C@@H]2COc4cc(OC)c(OC)cc4[C@@H]2C3=O)O1` reads > 10 µM (inactive).
`Cc1ccccc1C(OCCN(C)C)c1ccccc1` (configuration not stated): the IC50 was > 10 µM (inactive).
Consider `CN(C)CCOC(c1ccccc1)c1ccc(Br)cc1` (configuration not stated), for which the IC50 was > 10 µM (inactive).
As to `CCCCCCCCCCCC(=O)[O][Sn]([CH2]CCC)([CH2]CCC)[O]C(=O)CCCCCCCCCCC`, the IC50 was > 10 µM (inactive).
As for `CCC(=O)c1ccc(O)cc1`, the IC50 is > 10 µM (inactive).
With `O=C(Nc1ccc(Br)cc1)c1cc(Br)cc(Br)c1O` the figure was > 10 µM (inactive); with `Cc1ccc(CCn2c3c(c4cc(Cl)ccc42)CN(C)CC3)cn1`, > 10 µM (inactive); with `COCCOC(=O)C1=C(C)NC(C)=C(C(=O)OC/C=C/c2ccccc2)C1c1cccc([N+](=O)[O-])c1` (configuration not stated), > 10 µM (inactive).
`O=C(O)CCc1nc2ccccc2[nH]1`: the IC50 is > 10 µM (inactive).
On to `NC(N)=NN=C(/C=C/c1ccc([N+](=O)[O-])o1)/C=C/c1ccc([N+](=O)[O-])o1`, for which the IC50 was > 10 µM (inactive).
With `Cc1ccc2nc(N)[nH]c(=O)c2c1Sc1ccncc1` the figure was > 10 µM (inactive).
With `Clc1ccccc1C(c1ccccc1)(c1ccccc1)n1ccnc1`, the IC50 is > 10 µM (inactive).
For the molecule `O=C(CCl)c1ccc(Cl)cc1Cl`, the IC50 was > 10 µM (inactive).
For the molecule `O=C1[C@H]2CCCC[C@H]2C(=O)N1CCCCN1CCN(c2nsc3ccccc23)CC1`, the IC50 is > 10 µM (inactive).
Consider `CCN(CC)CCOc1ccccc1C(=O)CCc1ccccc1`, for which the IC50 is > 10 µM (inactive).
For `Cc1cc(=O)c2c(O)c3c(O)cc(=O)c4c3c3c(cc(O)c1c23)C(C)(C)C=4O`, the IC50 is > 10 µM (inactive).
Regarding `CCN1/C(=C/C=C/c2sc3ccccc3[n+]2CC)Sc2ccccc21`, the IC50 was > 10 µM (inactive).
The result for `CN(C)c1ccc2nc3ccc(=[N+](C)C)cc-3sc2c1` reads > 10 µM (inactive); that for `COc1cc(NCc2ccc3nc(N)nc(N)c3c2C)cc(OC)c1OC`, > 10 µM (inactive).
In the case of `C[C@@H]1C[C@H]2[C@@H]3CCC4=CC(=O)C=C[C@]4(C)[C@@]3(Cl)[C@@H](O)C[C@]2(C)[C@@]1(OC(=O)c1ccco1)C(=O)CCl`, the IC50 is > 10 µM (inactive).
`CCc1oc2ccccc2c1C(=O)c1cc(I)c(O)c(I)c1`: the IC50 was > 10 µM (inactive).
For the molecule `Cc1cc(CC(C)CC(C)(C)C)n(O)c(=O)c1` (configuration not stated), the IC50 was > 10 µM (inactive).
As to `Cc1ccc2c(c1)c1c3n2CCNC3CCC1` (configuration not stated), the IC50 was > 10 µM (inactive).
